The source made the active and inactive calls.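 Rule for the calls: active = compounds giving half or more protection of infected cells from virus-caused growth loss, again on retest; inactive = the rest.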
Test system: CEM cells HIV-1 protection, formazan growth assay
Assay: NCI AIDS Antiviral Assay
Settings: for IC50: measured here: growth of uninfected CEM cells
How it was run: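 Five concentrations of each compound were applied to infected and uninfected human CEM cells. Protection from HIV-1 was judged from growth measured with a soluble formazan assay.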

SMILES	EC50 [µM]	IC50 [µM]	outcome
COc1cccc(NC(=O)N/C(=C/c2ccc(N(CCC#N)CCC#N)cc2)NC(=O)c2cc([N+](=O)[O-])ccc2Cl)c1	> 12.3	11.5	–
Nc1[nH][nH]c(=O)c1N=O	> 200	> 200	–
Cc1ccsc1/C=N/Nc1ccccn1	> 200	21.4	–
CCOC(=O)Nc1cc2c(c(N)n1)N=C(c1ccc(OC)cc1)CN2	> 11	0.224	–
COc1ccc(C(=O)O/N=C2/CCCCC2CN(C)C)cc1 (configuration not stated)	–	–	inactive
C[C@@H]1CC[C@]2(C)C3(C)CC[C@]2(OC3=O)[C@@]12CC(c1ccoc1)OC2=O (some centres not stated)	> 200	33.9	–
CC(C)C(=S)N(C)O	> 18.6	0.302	–
O=c1cc(-c2ccccc2)oc2cc(O)ccc12	> 186	85.1	–
Cc1cc(N(CCC#N)CCC#N)ccc1/C=C(\NC(=O)/C=C/c1ccccc1)NC(=O)Nc1ccccc1C	> 9.77	> 9.77	–
Nc1nn2c(=O)c3ccccc3nc2s1	> 200	89.1	–
S=C1c2ccc(Cl)cc2-n2cnnc2C2CSCN12 (configuration not stated)	> 200	> 200	–
CC(C)=CCN1CCCn2c(=S)[nH]c3cccc(c32)C1=O	> 200	> 200	–
C=C(C)C1CCC2=CC(CC3(C)OC3C3=CC(C(=O)OC)=C(C1)O3)OC2=O (configuration not stated)	> 47.9	> 47.9	–
CN1CC2=C(NC(=S)NC2c2ccccc2)/C(=C/c2ccccc2)C1 (configuration not stated)	19.1	85.1	–
Nc1c(C(=O)O)c2nc3c(CO)cccc3oc-2cc1=O	> 200	2.14	–
CCCCN(CCCC)CC(C(=O)Nc1ccc([N+](=O)[O-])cc1[N+](=O)[O-])/C(C)=N\NC(=O)C[N+](C)(C)C (configuration not stated)	> 46.8	> 46.8	–
Cc1ccc(/C=C2/Sc3scc(-c4ccccc4)[n+]3C2=O)cc1	> 200	47.9	–
Cc1c(C)c2cc3c(=O)c(CCl)coc3c(C)c2oc1=O	> 17	> 17	–
S=C(NCc1ccccn1)N/N=C/c1ccccn1	> 0.2	0.00794	–
Cn1c(COc2ccc(/C=N/NC(=O)CCC(=O)N/N=C/c3ccc(OCc4c[n+]5ccccc5n4C)cc3)cc2)c[n+]2ccccc12	13.5	19.1	–
COc1ccccc1C1C2=C(COC2=O)OC(C)(C)Oc2cc3c(cc21)OCO3 (configuration not stated)	–	–	inactive

SMILES	EC50 [µM]	IC50 [µM]	outcome
CC(C)CCCC(C)[C@H]1CC[C@H]2[C@@H]3CC[C@H]4C[C@@H](CCC=C(c5cc(Cl)c(OCc6ccc(B(O)O)cc6)c(C(=O)O)c5)c5cc(Cl)c(OCc6ccc(B(O)O)cc6)c(C(=O)O)c5)CC[C@]4(C)[C@H]3CC[C@]12C (some centres not stated)	5.89	93.3	–
CCCCCCCCCCCCCC(=O)CSCCNC(=O)CCNC(=O)[C@@H](O)C(C)(C)COP(=O)(O)OP(=O)(O)OCC1OC(n2cnc3c(N)ncnc32)C(O)C1OP(=O)(O)O (some centres not stated)	–	–	inactive
C#Cc1ccccc1C(=O)OC	> 251	> 251	–
COc1ccc2c(c1)CCCN1CCc3cc(OC)c(OC)cc3C21 (configuration not stated)	> 200	> 200	–
COc1ccc(NCc2cccc3c(=O)c4ccc(Cl)cc4oc23)cc1	3.47	25.1	–
COc1cccc(NC(=S)/C(=C(/[O-])c2ccc([N+](=O)[O-])cc2)[n+]2ccccc2)c1	> 200	> 200	–
CCOC(=O)/N=N/C(C)(C)OC(C)=O	> 200	> 200	–
CN(C)C(=O)N1N[C@H](c2ccccc2)[C@@H]1c1ccccc1	> 200	135	–
CCOC(=O)C1C=CC(C)C2CCCCC12N1CCCC1 (configuration not stated)	–	–	inactive
O=c1c2cccnc2nc2ccc3c[nH][nH]c3c12	> 200	87.1	–
COc1ccc2c(c1)[nH]c(=O)c1c3ccccc3[nH]c21	> 200	145	–
C=CCOC1=C(OC(C)=O)C(=O)OC1C1COC(C)(C)O1 (configuration not stated)	> 200	26.3	–
CC(=O)NCc1c(C(N)=O)ncn1Cc1ccccc1	–	–	inactive
CCCNC(=S)N=Nc1c(O)[nH]c2ccccc12	> 200	> 200	–
O=c1nc(-c2ccccc2)cc(CC(O)c2ccc(Cl)c(Cl)c2)[nH]1 (configuration not stated)	> 20	> 20	–
Cc1cc(O)oc(=O)c1	> 2000	> 2000	–
O=c1ccc2cc3ccc4cccc5ccc(c2o1)c3c45	–	–	inactive
N#CC12CC3=C(N=C1NC1=C(CCc4ccccc41)C2)c1ccccc1CC3 (configuration not stated)	> 200	3.02	–
Cc1c2ccccc2nc(CSc2n[nH]c(=S)s2)[n+]1[O-]	> 200	> 200	–
CC1=CC(O)CC(C)(C)C1/C=C/C(C)=C/C=C/C(C)=C/C=C/C=C(C)/C=C/C=C(C)/C=C/C1=C(C)CC(O)CC1(C)C (configuration not stated)	> 200	33.9	–
COc1cc2c3c(c1OC)C1(C=CC(=O)C=C1)C[C@H]3N(C)CC2	–	–	inactive

SMILES	EC50 [µM]	IC50 [µM]	outcome
C=COCCC(C(=O)OCC)C(=O)OCC	> 200	> 200	–
O=C(NC1C=Nc2ccc(Cl)cc2NC1=O)c1ccc2ccccc2c1 (configuration not stated)	> 200	> 200	–
CCN1C[C@]2(COC)CCC(O)C34[C@@H]5C[C@@H]6C(O)[C@@H]5[C@](O)(C[C@@H]6OC)[C@@](O)([C@H]13)[C@@H](OC)[C@@H]42 (some centres not stated)	–	–	inactive
O=C(c1ccc(Cl)cc1)N(C(=O)N1CCC(c2ccccc2)CC1)c1ccccc1	> 200	11.2	–
C=CC1C(=C)CCC2C1CCC1C(C)(C(=O)O)CCCC21C (configuration not stated)	–	–	inactive
COC([C@@H](OC(=O)c1ccccc1)[C@H](OC(=O)c1ccccc1)C(O)COC(=O)c1ccccc1)n1cc(C)c(=O)[nH]c1=O (some centres not stated)	> 200	13.2	–
CNC(=O)CCNC(=O)CCC(=O)OC	> 200	> 200	–
CC(=O)Oc1ccc(CCC(=O)O[C@H](C(=O)O)[C@H](OC(=O)CCc2ccc(OC(C)=O)c(OC(C)=O)c2)C(=O)O)cc1OC(C)=O	> 53.7	30.2	–
CCOC(=O)SC1=NC(C)=CC(C)(C)S1	53.7	145	–
Cc1nc2ccccc2c(N)c1-c1cc(C)c2c(C)nc3ccccc3c2n1	> 200	3.89	–
Nc1sc(=S)nc2[nH]ncc12	> 200	> 200	–
CCCc1c[nH]c(-c2ccc(-c3cc(CCC)c(C=O)[nH]3)s2)c1	> 11.5	> 11.5	–
COC(=O)c1ccccc1CC(Cc1ccccc1)C(=O)OC (configuration not stated)	–	–	inactive
CC(=O)NC1C(OCc2ccccc2)OC(CO)C(O)C1OCC(=O)N1CCCC1C(=O)N[C@@H](CCC(=O)NCCNCCNc1c2ccccc2nc2cccc([N+](=O)[O-])c12)C(N)=O (some centres not stated)	> 100	1.51	–
C=C/C=C/NC(=O)OCc1ccccc1	–	–	inactive
CC(C)NC(=O)OCc1c(COC(=O)NC(C)C)c(-c2ccc(Cl)c(Cl)c2)n2c1CS(=O)(=O)C2	> 200	42.7	–
O=C(/C=C/c1ccc(Cl)c(Cl)c1)c1ccc(F)cc1	> 1.86	> 1.86	–
C=CCCC12CCCC(=O)C1Sc1ccccc12 (configuration not stated)	> 138	91.2	–
COC1/C=C/OC2(C)Oc3c(C)c(O)c4c(O)c(c(/C=N/OC/C=C(\C)CCC=C(C)C)c(O)c4c3C2=O)NC(=O)C(C)=C/C=C/C(C)C(O)C(C)C(O)C(C)C(OC(C)=O)C1C (configuration not stated)	> 200	4.47	–
CC(=O)OC(Cc1ccc2ccccc2n1)(C(F)(F)F)C(F)(F)F	–	–	inactive

Reference: PubChem BioAssay AID179 (DTP/NCI, 2004)
